Experimental findings from patent US6764829B2, “Nucleoside hydrolase and nucleoside phosphorylase detection kits, dipsticks and substrates” (Albert Einstein College of Medicine of Yeshiva University, priority 1996, dated 2004) are described below.

For one series, the target named is T1, IU-nucleoside hydrolase (Crithidia fasciculata, UniProt Q27546).
T1 sequence (Q27546 1-315): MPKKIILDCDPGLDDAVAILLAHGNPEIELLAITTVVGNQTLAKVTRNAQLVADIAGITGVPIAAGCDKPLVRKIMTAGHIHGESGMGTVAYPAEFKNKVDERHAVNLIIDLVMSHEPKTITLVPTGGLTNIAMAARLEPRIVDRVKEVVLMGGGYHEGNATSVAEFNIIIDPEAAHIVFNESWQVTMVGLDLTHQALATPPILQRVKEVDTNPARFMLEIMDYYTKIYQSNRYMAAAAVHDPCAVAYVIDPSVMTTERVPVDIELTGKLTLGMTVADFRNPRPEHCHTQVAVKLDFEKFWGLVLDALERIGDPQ
Briefly: Comparison of β-D-ribofuranoside substrates with IU-nucleoside hydrolase (Table 3). It is filed as biochemical. The settings on record: for Km: read-out: IU NH Km. The method, then:
(§1) The enzymes used were highly purified samples from Crithidia fasciculata (IU-nucleoside hydrolase) and Trypanosoma brucei brucei (IAG-nucleoside hydrolase), available as stock solutions of approximately 20 mg protein/mL.
(§2) Each reaction was conducted in a quartz cuvette with a 1 cm path length, placed in the observation chamber of a UV spectrophotometer, and in a total reaction volume of 600 μL. The temperature was adjusted by use of a circulating water bath, set so that the cuvette temperature equilibrated to 30° C. in about 5 minutes.
(§3) The β-D-ribofuranoside substrates were dissolved in aqueous buffer: 50 mM CHES for reactions at pH 10, 50 mM HEPES for reactions at pH 8. […] For the remaining reactions catalysed by IAG hydrolase, a single substrate concentration of between 100 and 300 μM was used.
(§4) The absorbance of each reaction mixture was monitored at or near the absorption maximum for the phenolic aglycon (as shown in Table 3). Monitoring began 5-10 minutes before the enzyme was added to determine if the substrate was stable under the reaction conditions.
(§5) Data were fitted to the Michaelis-Menton equation using kaleidagraph, and the resulting kinetic parameters along with other relevant data are summarized in Table 3.

For the next series, the target named is T2, IAG-nucleoside hydrolase (Trypanosoma brucei, UniProt Q57ZL6).
T2 sequence (Q57ZL6 1-327): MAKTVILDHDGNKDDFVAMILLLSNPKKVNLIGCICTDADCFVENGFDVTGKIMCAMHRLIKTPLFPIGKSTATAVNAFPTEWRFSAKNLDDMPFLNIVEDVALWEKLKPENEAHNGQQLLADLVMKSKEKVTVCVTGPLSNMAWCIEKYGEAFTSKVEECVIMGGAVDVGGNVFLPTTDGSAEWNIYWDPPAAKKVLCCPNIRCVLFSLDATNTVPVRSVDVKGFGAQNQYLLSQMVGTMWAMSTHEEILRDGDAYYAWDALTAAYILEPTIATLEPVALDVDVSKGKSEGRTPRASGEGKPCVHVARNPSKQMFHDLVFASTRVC
Kind of series: Comparison of β-D-ribofuranoside substrates with IAG-nucleoside hydrolase (Table 3). It counts as biochemical. The following applies: for IAG NH rate: at 200 μM substrate. The method, then:
as §1, §2, §3, §4, §5

For series [1], the system named is Giardia intestinalis (Portland 1 strain). Kind of series: Hydrolysis of substrates by Giardia intestinalis supernatants. The settings on record: 0.24 mM substrate, 50 mM HEPES pH 8. It counts as biochemical. On the procedure: Giardia intestinalis (Portland 1 strain) was grown for 2 days in TYI-33 medium supplemented with 5 mM arginine, harvested and washed. A suspension containing 2.91×10^8 cells of Giardia intestinalis in 1 mL of aqueous HEPES buffer (40 mM. pH 7) was mixed with 1 mL of aqueous HEPES buffer (40 mM, pH 7) containing 0.1 mM protease inhibitor E-64 and sonicated (Branson sonicator, duty cycle 40, output 2.5), for 2-3 min in ice. The suspension was then centrifuged in a Beckman microfuge for 10 mins at 4° C., and the supernatant decanted.
A second suspension of 2.91×10^8 cells of Giardia intestinalis in 1 mL of aqueous HEPES buffer (40 mM, pH 7) was mixed with 1 mL of 0.5% aqueous Triton X-100, left at 4° C. overnight, and the supernatant was decanted.
Aliquots (between 2 and 100 μL) of each of these supernatants were made up to a volume of 1 mL of water containing 50 mM HEPES buffer at pH 8, 0.24 mM 4-nitrophenyl β-D-ribofuranoside or 4-pyridyl β-D-ribofuranoside. The release of the aglycon was monitored by absorption spectrometry at 400 nm or 253 nm, respectively.
Protein was determined by Lowry method (ie Folin reaction).

The subject of a further series is T. vaginalis. Briefly: Hydrolysis of substrates by T. vaginalis extract. It is filed as biochemical. The settings on record: Triton X-100 extract; determined as in Example 24. On the procedure:
T. vaginalis was grown for 2 days in TYM medium, harvested, and washed. […] The ability of the extract to hydrolyse substrates was determined as in Example 24. For 4-nitrophenyl β-D-ribofuranoside, the activity was 165 nmoles.min^−1 per 10^8 cells, corresponding to an activity for the enzyme of 9 nmoles.min^−1.(mg protein)^−1. For 4-pyridyl β-D-ribofuranoside, the activity was 74 nmoles.min^−1 per […] corresponding to an activity for the enzyme of 4 nmoles.min^−1.(mg protein)^−1.

The target in a further series is AMP nucleosidase (Escherichia coli, UniProt P0AE12). Briefly: Kinetic parameters with nitrophenylriboside 5-phosphate and purine substrate (Table 1). It counts as biochemical, E coli. The text has this:
(§6) In this Example kinetic parameters for different enzymes were compared using nitrophenylriboside or a purine substrate. […] The E. coli and bovine spleen enzymes tested were ineffective in hydrolysing the substrate. The striking ability of one of the protozoan parasite enzymes to hydrolyse the substrate provides the basis for an assay for the protozoan parasites (see Example 22).

Substrate in series [2]: O=[N+]([O-])c1ccc(O[C@@H]2O[C@H](CO)[C@@H](O)[C@H]2O)cc1
Kind of series: Kinetic parameters (phosphorolysis) with nitrophenylriboside and purine substrate (Table 1). The settings on record: other: nitrophenylriboside as substrate, pH 8.0 in 50 mM HEPES, 30° C., 3 mM phosphate. It counts as biochemical, bovine.
From the text: as §6

The mark [3] stands for this setting: nitrophenylriboside 5-phosphate as substrate, pH 8.0 in 50 mM HEPES, 30° C., MgATP 100 μM.

Where two headings read alike, the source gives them in different places.

AMP nucleosidase, sequence (P0AE12 whole entry): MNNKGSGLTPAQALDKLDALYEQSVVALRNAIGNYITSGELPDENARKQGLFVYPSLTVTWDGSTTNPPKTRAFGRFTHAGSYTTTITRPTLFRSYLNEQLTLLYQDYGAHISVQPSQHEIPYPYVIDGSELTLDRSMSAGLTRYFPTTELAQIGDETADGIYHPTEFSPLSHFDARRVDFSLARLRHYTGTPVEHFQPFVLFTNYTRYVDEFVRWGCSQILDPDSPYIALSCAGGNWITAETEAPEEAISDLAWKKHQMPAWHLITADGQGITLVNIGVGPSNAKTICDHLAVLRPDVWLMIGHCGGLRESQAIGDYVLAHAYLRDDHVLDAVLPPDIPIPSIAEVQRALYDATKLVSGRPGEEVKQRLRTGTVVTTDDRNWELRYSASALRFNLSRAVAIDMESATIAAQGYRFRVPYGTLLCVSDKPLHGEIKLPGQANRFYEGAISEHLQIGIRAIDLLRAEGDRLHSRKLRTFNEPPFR

Consider `OC[C@H]1O[C@@H](Oc2cccc3ccccc23)[C@H](O)[C@@H]1O` [Example 2, α-naphthyl β-D-ribofuranoside], for which the inhibition constant (Ki) (commonly a dissociation constant, usually derived from enzyme kinetics or from competition with a known ligand) at IU-nucleoside hydrolase stood at 7.3 µM. In addition, on IU-nucleoside hydrolase (At pH 10, at 250 μM), the “IU NH kcat” value was “.009 s⁻¹”. For the same molecule, the “IAG NH rate” value on IAG-nucleoside hydrolase (pH 10.0) is less than 0.05 min⁻¹.

The molecule `O=C(Nc1cccc(O[C@@H]2O[C@H](CO)[C@@H](O)[C@H]2O)c1)C(F)(F)F` [Example 3, 3-trifluoroacetamidophenyl β-D-ribofuranoside] showed an inhibition constant (Ki) on IU-nucleoside hydrolase of 27.7 µM.

Molecule `Nc1cccc(O[C@@H]2O[C@H](CO)[C@@H](O)[C@H]2O)c1` [Example 4, 3-aminophenyl β-D-ribofuranoside] yielded a Ki on IU-nucleoside hydrolase of 72 µM. In addition, the “IU NH kcat” value at IU-nucleoside hydrolase (At pH 10, at 1240 μM) amounted to 0.7 s⁻¹. On IAG-nucleoside hydrolase (pH 10.0), the “IAG NH rate” value is less than 0.02 min⁻¹.

As to `O=C1CCCc2c(O[C@@H]3O[C@H](CO)[C@@H](O)[C@H]3O)cccc21` [Example 5, 1-tetralone-5-yl β-D-ribofuranoside], on IU-nucleoside hydrolase (At pH 10, at 200 μM), the “IU NH kcat” value was 0.5 s⁻¹. Also, the “IAG NH rate” value at IAG-nucleoside hydrolase (pH 8.0) and at IAG-nucleoside hydrolase (pH 10.0) was less than 0.01 min⁻¹ in each case.

In the case of `Nc1ccc(O[C@@H]2O[C@H](CO)[C@@H](O)[C@H]2O)cc1` [Example 6, p-aminophenyl β-D-ribofuranoside], the “IU NH kcat” value at IU-nucleoside hydrolase (At pH 10, 30° C.) is less than 0.01 s⁻¹.

Turning to `O=C1OC(c2ccc(O)cc2)(c2ccc(O[C@@H]3O[C@H](CO)[C@@H](O)[C@H]3O)cc2)c2ccccc21` (stereo partly drawn) [Example 7, 3-(4-hydroxyphenyl)-1(3H)-isobenzofuranone-3-(phen-4-yl) β-D-ribofuranoside], the “IU NH kcat” value on IU-nucleoside hydrolase (At pH 10, at 200 μM) was 10 at sec^−1. Also, the “IAG NH rate” value at IAG-nucleoside hydrolase (pH 8.0) and on IAG-nucleoside hydrolase (pH 10.0) was less than 0.01 min⁻¹ throughout.

Consider `O=[N+]([O-])c1ccccc1O[C@@H]1O[C@H](CO)[C@@H](O)[C@H]1O` [Example 9, 2-nitrophenyl β-D-ribofuranoside], for which the “substrate quality in words” value on IU-nucleoside hydrolase is “good substrates”. At IAG-nucleoside hydrolase (pH 10.0), the “IAG NH rate” value is 0.15 min⁻¹.

In the case of `Cc1cc(=O)oc2cc(O[C@@H]3O[C@H](CO)[C@@H](O)[C@H]3O)ccc12` [Example 10, 4-methylcoumarin-7-yl β-D-ribofuranoside], on IU-nucleoside hydrolase, the “substrate quality in words” value is on record as “good substrates”. Further, the “IAG NH rate” value at IAG-nucleoside hydrolase (pH 10.0) was found to be 0.003 min⁻¹.

Regarding `OC[C@H]1O[C@@H](Oc2cccnc2)[C@H](O)[C@@H]1O` [Example 11, 3-pyridyl β-D-ribofuranoside], the “IAG NH rate” value on IAG-nucleoside hydrolase (pH 10.0) worked out at 0.01 min⁻¹.

In the case of `OC[C@H]1O[C@@H](Oc2ccncc2)[C@H](O)[C@@H]1O` [Example 12, 4-pyridyl β-D-ribofuranoside], the “substrate quality in words” value on IU-nucleoside hydrolase is reported as “good substrates”; at IU-nucleoside hydrolase (listed as 4-pyridyl riboside) it was “lower activity”; at IAG-nucleoside hydrolase it was “good substrates”; on IAG-nucleoside hydrolase (listed as 4-pyridyl riboside), “substantially greater activity”. For the same molecule, the activity per cells in series [1] is listed as 210 nmoles.min^−1 per 10^8 cells; in the series on T. vaginalis it was 74 nmoles.min^−1 per 10^−8 cells. The “activity for the enzyme” value is given as 31 nmoles.min^−1.(mg protein)^−1 in series [1] (protein by Lowry method) and 4 nmoles.min^−1.(mg protein)^−1 in the series with T. vaginalis.

Consider `OC[C@H]1O[C@@H](Oc2cccc3ncccc23)[C@H](O)[C@@H]1O` [Example 14, 5-quinolyl β-D-ribofuranoside], for which the entries for the “IAG NH rate” value at IAG-nucleoside hydrolase (pH 8.0) and on IAG-nucleoside hydrolase (pH 10.0) were 0.16 min⁻¹ and less than 0.01 min⁻¹, respectively.

Turning to `NC(=O)c1ccc(O[C@@H]2O[C@H](CO)[C@@H](O)[C@H]2O)nc1` [Example 19, 3-carboxamido-6-pyridyl β-D-ribofuranoside], the “substrate quality in words” value at IU-nucleoside hydrolase and at IAG-nucleoside hydrolase was “good substrates” in each case. Moreover, the “IU NH kcat” value at IU-nucleoside hydrolase (At pH 10, 30° C.) turned out to be 141 s⁻¹. Further, the Michaelis constant (Km) (commonly the concentration of substrate that gives half-maximal velocity) at IU-nucleoside hydrolase (At pH 10, 30° C.) was found to be 369 µM. Besides, the “IAG NH rate” value at IAG-nucleoside hydrolase (pH 8.0) was greater than 100 min⁻¹; on IAG-nucleoside hydrolase (pH 10.0), 24 min⁻¹.

With `O=Cc1ccc(O[C@@H]2O[C@H](CO)[C@@H](O)[C@H]2O)cc1` [Example 20, 4-formylphenyl β-D-ribofuranoside], the “IAG NH rate” value on IAG-nucleoside hydrolase (pH 10.0) was found to be 0.01 min⁻¹.

nitrophenylriboside 5-phosphate: the kcat/Km ratio at AMP nucleosidase (kcat/Km for the nitrophenyl substrate to that for AMP) was 3 × 10^−7. At AMP nucleosidase (setting [3]), the Km stood at 6.25 mM; the kcat (as a rule, the number of substrate molecules converted per active site and unit of time at saturation) came out at 0.0004 s⁻¹.

“β-D-ribofuranoside of Luminol [Example 15]”: at IU-nucleoside hydrolase (At pH 10, 30° C.), the “IU NH kcat” value is 163 s⁻¹ and the Michaelis-Menten constant (Km) worked out at 133 µM. For the same molecule, the “IAG NH rate” value on IAG-nucleoside hydrolase (pH 8.0) was less than 0.01 min⁻¹. Besides, the “IAG NH rate” value at IAG-nucleoside hydrolase (pH 10.0) was less than 0.03 min⁻¹.

B1: Purine nucleoside phosphorylase (Bos taurus) (protein)
chain: MANGYTYEDYQDTAKWLLSHTEQRPQVAVICGSGLGGLVNKLTQAQTFDYSEIPNFPESTVPGHAGRLVFGILNGRACVMMQGRFHMYEGYPFWKVTFPVRVFRLLGVETLVVTNAAGGLNPNFEVGDIMLIRDHINLPGFSGENPLRGPNEERFGVRFPAMSDAYDRDMRQKAHSTWKQMGEQRELQEGTYVMLGGPNFETVAECRLLRNLGADAVGMSTVPEVIVARHCGLRVFGFSLITNKVIMDYESQGKANHEEVLEAGKQAAQKLEQFVSLLMASIPVSGHTG
notes: The E. coli and bovine spleen enzymes tested; from tissue; host or cells: bovine spleen
For B1, in series [2], the Km was 224 µM; the kcat stood at 0.0002 s⁻¹; the kcat/Km (as a rule, the second-order rate constant that governs catalysis at low substrate concentration) was found to be 0.89 M⁻¹ s⁻¹.
